Measurements reported in patent publication US6867305B2, “Synthesis of epothilones, intermediates thereto and analogues thereof” (Sloan-Kettering Institute for Cancer Research, priority 1996, dated 2005).
Values joined by “and” are separate entries in the source; they are usually repeats but may differ in a detail not shown here. Equal entries are not always repeated. Starred links: 1 amine or outer side, 2 acyl side, 3 side chain; linkers in the order of their positions; H or OH if unused. Positions of bridges follow the written chain, without caps; N, C: chain ends. Non-standard residues stand in square brackets, D forms with d. Residues, ends and D or L forms follow the SMILES beside them. Chains are numbered I, II in the order given. Actinocin(9to1) = Cc1c2oc3c(C)ccc(C(=O)[*:1])c3nc-2c(C(=O)[*:2])c(N)c1=O; NMeV = CN[C@H](C(=O)O)C(C)C; Sar = CNCC(=O)O

Legend:
tubulin = assay: Tubulin-binding / tubulin polymerization assay; assay type: biochemical
CCRF-CEM/VBL = assay: Relative potency in vitro, very highly resistant MDR cells; assay type: cell-based, human
Method: (§1) The cells were cultured at an initial density of 2-5×10^4 cells per ml. They were maintained in a 5% CO2-humidified atmosphere at 37° C. in RPMI mediun 1640 (GIBCO/BRL) containing penicillin (100 units/ml), streptomycin (100 μg/ml) (GIBCO/BRL), and 5% heat-inactivated fetal bovine serum. For solid tumor cells growing in a monolayer (such as MCF-7/Adr), cytotoxicitiy of the drug was determined in 96-well microtiter plates by using the sulforhodamine B method as described by Skehan et al (23) for measuring the cellular protein content. For cells that were grown in suspension (such as CCRF-CEM and its sublines), cytotoxicitiy was measured by using the 2,-3-bis(2-methoxy-4-nitro-5-sulfophenyl)-5carboxanilide)-2H terazodium hydroxide (XTT)-microculture tetrazonium method (24) in duplicate in 96-well microtiter plates. For both methods, the absorbance of each well was measured with a microplate reader (EL-340, Bio-Tek, Burlington, Vt.). Each run entailed six or seven concentrations of the tested drugs. Dose-effect relationship data were analyzed with the median-effect plot (25) by using a previously described computer program (26).

[1] = system: CCRF-CEM human T-cell acute lymphoblastic leukemia cells; assay: Tumor cell growth inhibition in vitro (XTT, 72 h); assay type: cell-based; details: CCRF-CEM; for IC50: 72 h incubation, read-out: IC50
Method: (§2) The fresh medium containing each drug was replenished every 7-14 days. […] In each case ,the drug-exposed cells were resuspended in fresh media for a minimum of 4 days before the experiments for the cell-growth inhibition was carried out.
as §1

[2] = system: MX-1 mammary carcinoma xenograft; details: MX-1, i.p., ref 19 (Table 4)
[3] = system: MCF-7/Adr mammary xenograft; assay: Human tumor xenograft in nude mice; assay type: in vivo; details: i.p., ref 19 (Table 5)
[4] = system: CCRF-CEM/VBL100 (vinblastine-resistant subline); assay: Tumor cell growth inhibition in vitro (XTT, 72 h); assay type: cell-based, human
Method: as §2, §1

[5] = system: DC-3F hamster lung fibroblasts; assay: Tumor cell growth inhibition in vitro; assay type: cell-based; details: read-out: IC50
Method: as §2, §1

## C/C1=C/CC(/C(C)=C/c2csc(COC(=O)c3c(F)c(F)c(N=[N+]=[N-])c(F)c3F)n2)OC(=O)CC(O)C(C)(C)C(=O)C(C)C(O)[C@@H](C)CCC1 (stereo partly drawn) [compound 66]
tubulin
  induction of tubulin polymerization: did not induce tubulin polymerization

## C/C1=C/C[C@@H](/C(C)=C/c2csc(C=O)n2)OC(=O)C[C@H](O)C(C)(C)C(=O)[C@H](C)[C@@H](O)[C@@H](C)CCC1 [21-oxo-dEpoB, 21-oxo-desoxyepothilone B]
CCRF-CEM/VBL; MDR CCRF-CEM/VBL cells
  potency relative to dEpoB (times less potent): 5.1 ×
CCRF-CEM/VBL; [IC50 CCRF-CEM/VBL]/[IC50 CCRF-CEM]
  Fold of Resistance (B)/(A): 11.9 x
CCRF-CEM/VBL; very highly resistant MDR CCRF-CEM/VBL cells, read-out: CCRF-CEM/VBL IC50
  IC50: 326 nM
[1]
  potency relative to dEpoB (times less potent): about 3.7 ×
  IC50: 27 nM

## CC[C@@]1(O)C(=O)OCc2c1cc1n(c2=O)Cc2cc3ccccc3nc2-1 [Camptothecin, camptothecin, reference compound]
[2]
  Therapeutic Effect Rank Order: dEpoB>Camptothecin>Taxol>VBL, EpoB
[3]
  Therapeutic Effect Rank Order: dEpoB>Camptothecin>Adriamycin>Taxol

## CC1=CCC(C(C)=Cc2csc(C)n2)NC(=O)CC(O)C(C)(C)C(=O)C(C)C(O)C(C)CCC1 [15-epi-aza-dEpoB, 12,13,15-desoxy-15(R)-aza-epothilone B]
[4]; CCRF-CEM/VBL100, 72 h, read-out: IC50
  IC50: 551 nM
[4]; CCRF-CEM/VBL100 vs CCRF-CEM
  cross-resistance (fold of resistance vs parent cell line): 4.6 x
[1]
  IC50: 119 nM

## Cc1c2oc3c(C)ccc(C(=O)N[C@@H]4C(=O)N[C@H](C(C)C)C(=O)N5CCC[C@H]5C(=O)N(C)CC(=O)N(C)[C@@H](C(C)C)C(=O)O[C@@H]4C)c3nc-2c(C(=O)N[C@@H]2C(=O)N[C@H](C(C)C)C(=O)N3CCC[C@H]3C(=O)N(C)CC(=O)N(C)[C@@H](C(C)C)C(=O)O[C@@H]2C)c(N)c1=O [Actinomycin D, actinomycin D, reference compound] (I: T[dV]P[Sar][NMeV] / II: T[dV]P[Sar][NMeV]; ester I:1-I:C, II:1-II:C; linker I:N-II:N via Actinocin(9to1))
[5]
  IC50: 0.25 nM and 0.31 nM
